# From ChEMBL document CHEMBL5316357, “Discovery of Linvencorvir (RG7907), a Hepatitis B Virus Core Protein Allosteric Modulator, for the Treatment of Chronic HBV Infection” (J Med Chem, 2023)
# How the values were obtained:
# [1] = Half life in female cynomolgus monkey at 3 mg/kg,po by LC-MS/MS analysis; type: ADME, organism-based, Macaca fascicularis; settings: in vivo
# [2] = Cmax in male minipig at 3 mg/kg,po by LC-MS/MS analysis; type: ADME, organism-based, Sus scrofa domesticus; set-up: dose 3 mg/kg, route po; settings: pig, in vivo
# [3] = Volume of distribution at steady state in minipig at 2 mg/kg,iv by LC-MS/MS analysis; type: ADME, organism-based, Sus scrofa domesticus; settings: pig, in vivo, read-out: Vdss
# [4] = Volume of distribution at steady state in cynomolgus monkey at 2 mg/kg,iv by LC-MS/MS analysis; type: ADME, organism-based, Macaca fascicularis; settings: in vivo, read-out: Vdss
# [5] = AUClast in female minipig at 3 mg/kg,po by LC-MS/MS analysis; type: ADME, organism-based, Sus scrofa domesticus; set-up: dose 3 mg/kg, route po; settings: pig, in vivo
# [6] = Cmax in male minipig at 10 mg/kg,po by LC-MS/MS analysis; type: ADME, organism-based, Sus scrofa domesticus; set-up: dose 10 mg/kg, route po; settings: pig, in vivo
# [7] = Tmax in female Wistar Han rat at 30 mg/kg,po by LC-MS/MS analysis; type: ADME, organism-based; settings: in vivo
# [8] = AUClast in male minipig at 10 mg/kg,po by LC-MS/MS analysis; type: ADME, organism-based, Sus scrofa domesticus; set-up: dose 10 mg/kg, route po; settings: pig, in vivo
# [9] = Tmax in female minipig at 3 mg/kg,po by LC-MS/MS analysis; type: ADME, organism-based, Sus scrofa domesticus; settings: pig, in vivo
# [10] = Cmax in male Wistar Han rat at 30 mg/kg,po by LC-MS/MS analysis; type: ADME, organism-based; set-up: dose 30 mg/kg, route po; settings: in vivo
# [11] = AUC (0-infinity) in mouse plasma at 3 mg/kg,po; type: ADME, organism-based; set-up: dose 3 mg/kg, route po; settings: in vivo
# [12] = AUClast in female cynomolgus monkey at 30 mg/kg,po by LC-MS/MS analysis; type: ADME, organism-based, Macaca fascicularis; set-up: dose 30 mg/kg, route po; settings: in vivo
# [13] = Oral bioavailability in female minipig at 10 mg/kg by LC-MS/MS analysis; type: ADME, organism-based, Sus scrofa domesticus; settings: pig, in vivo
# [14] = molecular target: T1, Cytochrome P450 1A2 (Homo sapiens, UniProt P05177); experiment: Inhibition of CYP1A2 (unknown origin); type: ADME
# T1 sequence (P05177 whole entry): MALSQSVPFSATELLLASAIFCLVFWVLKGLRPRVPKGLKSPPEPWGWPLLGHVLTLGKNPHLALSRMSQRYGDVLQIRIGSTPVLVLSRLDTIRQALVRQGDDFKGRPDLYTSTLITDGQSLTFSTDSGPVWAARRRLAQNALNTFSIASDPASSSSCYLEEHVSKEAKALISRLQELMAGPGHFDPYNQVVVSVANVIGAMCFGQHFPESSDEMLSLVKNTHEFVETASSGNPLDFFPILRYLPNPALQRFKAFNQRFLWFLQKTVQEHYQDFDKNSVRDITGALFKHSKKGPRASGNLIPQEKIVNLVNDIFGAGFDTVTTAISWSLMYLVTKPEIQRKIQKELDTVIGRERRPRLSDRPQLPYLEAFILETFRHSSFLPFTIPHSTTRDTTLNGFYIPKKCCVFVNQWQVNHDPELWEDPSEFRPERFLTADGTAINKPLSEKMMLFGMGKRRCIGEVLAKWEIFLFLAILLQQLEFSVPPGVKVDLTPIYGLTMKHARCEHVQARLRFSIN
# [15] = Half life in male cynomolgus monkey at 3 mg/kg,po by LC-MS/MS analysis; type: ADME, organism-based, Macaca fascicularis; settings: in vivo
# [16] = Cmax in female Wistar Han rat at 30 mg/kg,po by LC-MS/MS analysis; type: ADME, organism-based; set-up: dose 30 mg/kg, route po; settings: in vivo
# [17] = Clearance in minipig at 2 mg/kg,iv by LC-MS/MS analysis; type: ADME, organism-based, Sus scrofa domesticus; settings: pig, in vivo
# [18] = Cmax in female minipig at 10 mg/kg,po by LC-MS/MS analysis; type: ADME, organism-based, Sus scrofa domesticus; set-up: dose 10 mg/kg, route po; settings: pig, in vivo
# [19] = Clearance in rat plasma at 1 mg/kg,iv; type: ADME, organism-based
# [20] = Half life in minipig at 2 mg/kg,iv by LC-MS/MS analysis; type: ADME, organism-based, Sus scrofa domesticus; settings: pig, in vivo
# [21] = Tmax in male cynomolgus monkey at 30 mg/kg,po by LC-MS/MS analysis; type: ADME, organism-based, Macaca fascicularis; settings: in vivo
# [22] = Oral bioavailability in mouse plasma at 3 mg/kg; type: ADME, organism-based; settings: in vivo
# [23] = Half life in male Wistar Han rat at 3 mg/kg,po by LC-MS/MS analysis; type: ADME, organism-based; settings: in vivo
# [24] = AUClast in male cynomolgus monkey at 10 mg/kg,po by LC-MS/MS analysis; type: ADME, organism-based, Macaca fascicularis; set-up: dose 10 mg/kg, route po; settings: in vivo
# [25] = AUClast in male minipig at 3 mg/kg,po by LC-MS/MS analysis; type: ADME, organism-based, Sus scrofa domesticus; set-up: dose 3 mg/kg, route po; settings: pig, in vivo
# [26] = AUClast in female cynomolgus monkey at 3 mg/kg,po by LC-MS/MS analysis; type: ADME, organism-based, Macaca fascicularis; set-up: dose 3 mg/kg, route po; settings: in vivo
# [27] = Half life in female minipig at 10 mg/kg,po by LC-MS/MS analysis; type: ADME, organism-based, Sus scrofa domesticus; settings: pig, in vivo
# [28] = AUClast in female cynomolgus monkey at 10 mg/kg,po by LC-MS/MS analysis; type: ADME, organism-based, Macaca fascicularis; set-up: dose 10 mg/kg, route po; settings: in vivo
# [29] = Clearance in Wistar Han rat at 2 mg/kg,iv by LC-MS/MS analysis; type: ADME, organism-based; settings: in vivo
# [30] = Tmax in male minipig at 3 mg/kg,po by LC-MS/MS analysis; type: ADME, organism-based, Sus scrofa domesticus; settings: pig, in vivo
# [31] = Half life in female minipig at 3 mg/kg,po by LC-MS/MS analysis; type: ADME, organism-based, Sus scrofa domesticus; settings: pig, in vivo
# [32] = Cmax in female cynomolgus monkey at 30 mg/kg,po by LC-MS/MS analysis; type: ADME, organism-based, Macaca fascicularis; set-up: dose 30 mg/kg, route po; settings: in vivo
# [33] = Tmax in male Wistar Han rat at 30 mg/kg,po by LC-MS/MS analysis; type: ADME, organism-based; settings: in vivo
# [34] = Tmax in female cynomolgus monkey at 10 mg/kg,po by LC-MS/MS analysis; type: ADME, organism-based, Macaca fascicularis; settings: in vivo
# [35] = Oral bioavailability in female Wistar Han rat at 30 mg/kg by LC-MS/MS analysis; type: ADME, organism-based; settings: in vivo
# [36] = Oral bioavailability in male Wistar Han rat at 30 mg/kg by LC-MS/MS analysis; type: ADME, organism-based; settings: in vivo
# [37] = Half life in mouse plasma at 1 mg/kg,iv; type: ADME, organism-based
# [38] = AUClast in female minipig at 30 mg/kg,po by LC-MS/MS analysis; type: ADME, organism-based, Sus scrofa domesticus; set-up: dose 30 mg/kg, route po; settings: pig, in vivo
# [39] = Half life in female cynomolgus monkey at 30 mg/kg,po by LC-MS/MS analysis; type: ADME, organism-based, Macaca fascicularis; settings: in vivo
# [40] = AUClast in female Wistar Han rat at 30 mg/kg,po by LC-MS/MS analysis; type: ADME, organism-based; set-up: dose 30 mg/kg, route po; settings: in vivo
# [41] = Half life in male minipig at 30 mg/kg,po by LC-MS/MS analysis; type: ADME, organism-based, Sus scrofa domesticus; settings: pig, in vivo
# [42] = Half life in male minipig at 10 mg/kg,po by LC-MS/MS analysis; type: ADME, organism-based, Sus scrofa domesticus; settings: pig, in vivo
# [43] = Half life in male Wistar Han rat at 30 mg/kg,po by LC-MS/MS analysis; type: ADME, organism-based; settings: in vivo
# [44] = AUClast in male cynomolgus monkey at 30 mg/kg,po by LC-MS/MS analysis; type: ADME, organism-based, Macaca fascicularis; set-up: dose 30 mg/kg, route po; settings: in vivo
# [45] = Half life in Wistar Han rat at 2 mg/kg,iv by LC-MS/MS analysis; type: ADME, organism-based; settings: in vivo
# [46] = Cmax in female cynomolgus monkey at 10 mg/kg,po by LC-MS/MS analysis; type: ADME, organism-based, Macaca fascicularis; set-up: dose 10 mg/kg, route po; settings: in vivo
# [47] = Half life in female Wistar Han rat at 10 mg/kg,po by LC-MS/MS analysis; type: ADME, organism-based; settings: in vivo
# [48] = Half life in female Wistar Han rat at 30 mg/kg,po by LC-MS/MS analysis; type: ADME, organism-based; settings: in vivo
# [49] = Tmax in male minipig at 10 mg/kg,po by LC-MS/MS analysis; type: ADME, organism-based, Sus scrofa domesticus; settings: pig, in vivo
compound,measurement,setting,value
CCOC(=O)C1=C(CN2CCN3C(=O)N(CC(C)(C)C(=O)O)C[C@@H]3C2)NC(c2nccs2)=N[C@H]1c1cccc(F)c1C [LINVENCORVIR],half-life,[1],5.92 h
same,Cmax,[2],67.3 ng/mL
same,Vd,[3],1.12 L/kg
same,Vd,[4],0.67 L/kg
same,AUC(0-t),[5],201 ng·h/mL
same,Cmax,[6],248 ng/mL
same,Tmax,[7],2 h
same,AUC(0-t),[8],1240 ng·h/mL
same,Tmax,[9],1 h
same,Cmax,[10],1350 ng/mL
same,AUC,[11],275 ng·h/mL
same,AUC(0-t),[12],3150 ng·h/mL
same,bioavailability,[13],11.4%
same,IC50,[14],> 50 µM
same,half-life,[15],6.25 h
same,Cmax,[16],3310 ng/mL
same,clearance,[17],24.1 mL/min/kg
same,Cmax,[18],132 ng/mL
same,clearance,[19],30 mL/min/kg
same,half-life,[20],2.19 h
same,Tmax,[21],2 h
same,F,[22],33%
same,half-life,[23],1.87 h
same,AUC(0-t),[24],1430 ng·h/mL
same,AUC(0-t),[25],228 ng·h/mL
same,AUC(0-t),[26],253 ng·h/mL
same,half-life,[27],9.7 h
same,AUC(0-t),[28],1060 ng·h/mL
same,clearance,[29],30.5 mL/min/kg
same,Tmax,[30],0.5 h
same,half-life,[31],9.68 h
same,Cmax,[32],841 ng/mL
same,Tmax,[33],1 h
same,Tmax,[34],0.5 h
same,bioavailability,[35],105%
same,bioavailability,[36],50%
same,half-life,[37],0.9 h
same,AUC(0-t),[38],2550 ng·h/mL
same,half-life,[39],5.98 h
same,AUC(0-t),[40],17800 ng·h/mL
same,half-life,[41],7.64 h
same,half-life,[42],7.28 h
same,half-life,[43],2.79 h
same,AUC(0-t),[44],7120 ng·h/mL
same,half-life,[45],1.46 h
same,Cmax,[46],336 ng/mL
same,half-life,[47],1.53 h
same,half-life,[48],1.8 h
same,Tmax,[49],1 h
